# Test results taken from patent US10688196B2, “Cross-linking agents of collagen fibers for the use in the treatment of corneal ectasia” (SOOFT ITALIA SPA, priority 2015, dated 2020).
# Columns and labels:
# [1] = compared with solubility in water; cited from earlier work
# [2] = test system: bovine cornea; conditions: compared to riboflavin in deionized water; cited from earlier work
# [3] = riboflavin solutions, 40 W fluorescent light, 1350 foot-candles; cited from earlier work
# [4] = Riboflavin titer determination before and after sterilization (stability); assay type: physicochemical; conditions: 1 atm, 121° C.
# Description: Riboflavin Titer Determination
# [5] = ROS (superoxide anion) production on 366 nm irradiation, measured by reduction of Nitro Blue Tetrazolium to Formazan Blue (absorbance at 560 nm); conditions: at different light intensities
# Protocol: The rational of the method is based on the fact that some organic molecules, both natural and synthetic, when irradiated with a particular wavelength, activate and, by interacting with oxygen, produce superoxide anion. […] As the amount of produced superoxide anion correlates with the amount of reduced NBT, from the absorption rate of reduced NBT is obtained the amount of ROS, thereby the ROS production can be expressed as function of irradiation time (minutes).
# The ROS measurement is performed by a photoactivation chamber which enables to irradiate in controlled conditions the solutions of photoactivator and detector. The controlled parameters are emission specificity, uniform radiance, irradiation intensity, irradiation time.
# Riboflavin-5′-(dihydrogen phosphate), monosodium salt, control sample, NBT control sample and reference sample were irradiated at different incident light intensity (99 μW/cm^2, 223 μW/cm^2, 633 μW/cm^2) (366 nm wavelength) in the photoactivation chamber, and absorbance at 560 nm is recorded. During the irradiation the temperature of the solutions was measured. […] Therefore reasonably the effect of temperature is marginal on these absorbance measures.
# The two samples were irradiated in the photoactivation chamber by 99 μW/cm^2 incident light, and absorbance at 560 nm was recorded according to the above described procedure. […]
# [6] = test system: cornea; conditions: UVA irradiation at 370 nm, immediately after irradiation; cited from earlier work
Compound,effect on riboflavin aqueous solubility [1],effect on riboflavin permeability (bovine cornea) [2],stabilizing effect on riboflavin (photodegradation) [3] [%],other results
2-Hydroxypropyl-β-cyclodextrin,failed to enhance drug solubility at any significant level,no significant improvement in drug permeation,,
CSCCC(N)C(=O)O (racemic) [DL-methionine],,,76.3,
"Cc1cc2nc3c(=O)[nH]c(=O)nc-3n(C[C@H](O)[C@H](O)[C@H](O)COP(=O)([O-])O)c2cc1C.[Na+] [Riboflavin phosphate, Riboflavin-5-Phosphate Sodium]",,,,"Riboflavin % by weight ([4]; in presence of EDTA H4 (0.1% p/p), Tris (0.05% p/p) and phosphate buffer, sterilization 20 min): 67.0 % by weight; Riboflavin % by weight ([4]; in presence of EDTA H4 (0.1% p/p), Tris (0.05% p/p) and phosphate buffer, sterilization 30 min): 60.0 % by weight; Riboflavin % by weight ([4]; in presence of EDTA H4 (0.1% p/p), Tris (0.05% p/p) and phosphate buffer, sterilization 45 min): 50.0 % by weight; Riboflavin % by weight ([4]; in presence of borate buffer, sterilization 20 min): 68.0 % by weight; Riboflavin % by weight ([4]; in presence of distilled water, sterilization 20 min): 95.0 % by weight; Riboflavin % by weight ([4]; in presence of distilled water, sterilization 30 min): 92.0 % by weight; Riboflavin % by weight ([4]; in presence of distilled water, sterilization 45 min): 90.0 % by weight; Riboflavin % by weight ([4]; in presence of phosphate buffer, sterilization 20 min): 65.0 % by weight; Riboflavin % by weight ([4]; in presence of phosphate buffer, sterilization 30 min): 40.0 % by weight; Riboflavin % by weight ([4]; in presence of phosphate buffer, sterilization 45 min): 39.0 % by weight; change of the absorption on irradiation [5]: no appreciable change of the absorption; increase of the biomechanical rigidity of the cornea [6]: about 300%"
O=C([O-])CN(CCN(CC(=O)[O-])CC(=O)O)CC(=O)O.[Na+].[Na+] [disodium ethylenediamine (EDTA)],,,96.2,
COC(=O)c1ccc(O)cc1 [methylparaben],,,86.4,
N[C@@H](CCC(=O)N[C@@H](CS)C(=O)NCC(=O)O)C(=O)O [reduced glutathione],,,26.2,
O=S([O-])([O-])=S.[Na+].[Na+] [sodium thiosulfate],,,72.9,
NC(N)=S [thiourea],,,88.2,
OC[C@H]1O[C@@H]2O[C@H]3[C@H](O)[C@@H](O)[C@@H](O[C@H]4[C@H](O)[C@@H](O)[C@@H](O[C@H]5[C@H](O)[C@@H](O)[C@@H](O[C@H]6[C@H](O)[C@@H](O)[C@@H](O[C@H]7[C@H](O)[C@@H](O)[C@@H](O[C@H]1[C@H](O)[C@H]2O)O[C@@H]7CO)O[C@@H]6CO)O[C@@H]5CO)O[C@@H]4CO)O[C@@H]3CO [α-cyclodextrin],increased riboflavin solubility,no significant improvement in drug permeation,,
OC[C@H]1O[C@@H]2O[C@H]3[C@H](O)[C@@H](O)[C@@H](O[C@H]4[C@H](O)[C@@H](O)[C@@H](O[C@H]5[C@H](O)[C@@H](O)[C@@H](O[C@H]6[C@H](O)[C@@H](O)[C@@H](O[C@H]7[C@H](O)[C@@H](O)[C@@H](O[C@H]8[C@H](O)[C@@H](O)[C@@H](O[C@H]1[C@H](O)[C@H]2O)O[C@@H]8CO)O[C@@H]7CO)O[C@@H]6CO)O[C@@H]5CO)O[C@@H]4CO)O[C@@H]3CO [β-cyclodextrin],increased riboflavin solubility,enhances riboflavin permeability,,
OC[C@H]1O[C@@H]2O[C@H]3[C@H](O)[C@@H](O)[C@@H](O[C@H]4[C@H](O)[C@@H](O)[C@@H](O[C@H]5[C@H](O)[C@@H](O)[C@@H](O[C@H]6[C@H](O)[C@@H](O)[C@@H](O[C@H]7[C@H](O)[C@@H](O)[C@@H](O[C@H]8[C@H](O)[C@@H](O)[C@@H](O[C@H]9[C@H](O)[C@@H](O)[C@@H](O[C@H]1[C@H](O)[C@H]2O)O[C@@H]9CO)O[C@@H]8CO)O[C@@H]7CO)O[C@@H]6CO)O[C@@H]5CO)O[C@@H]4CO)O[C@@H]3CO [γ-cyclodextrin],failed to enhance drug solubility at any significant level,no significant improvement in drug permeation,,
ribonucleic acid,,,59.3,
